Measurements reported in PMC9229263, “Pyrazolo[4,3-e]tetrazolo[1,5-b][1,2,4]triazine Sulfonamides as Novel Potential Anticancer Agents: Cytotoxic and Genotoxic Activities In Vitro” (Molecules, 2022).
Where two headings read alike, the source gives them in different places.

Legend:
[1] = test system: HCT 116; conditions: cited from earlier work
[2] = test system: PC-3; conditions: cited from earlier work
[3] = test system: HeLa; test: MTT assay, HeLa; format: cell-based; conditions: Homo sapiens, 72 h, 95% confidence intervals in parentheses
Text: (§1) In order to characterize the effect of tested compounds on cell viability, the MTT test was used. MTT microplate assay enables evaluation of cell viability via measuring cell metabolic activity represented as an ability to incorporate and reduce yellow tetrazolium salt to the violet-blue formazan compounds via the activity of mitochondrial succinate dehydrogenase enzyme. The number of metabolically active cells positively correlates with the amount of reduced tetrazolium salt. The absorbance of formazan solution obtained after solubilizing formazan crystals in an organic solvent, e.g., DMSO, can be measured spectrophotometrically at 570 nm.
(§2) The suspension of 8–10 × 10^3 (adherent cells) and 8 × 10^4 (PBMCs) cells in 200 µL and 100 µL medium, respectively, was transferred to each well of 96-well microplate. Plates were incubated for 24 h in controlled conditions (5% CO2; 37 °C) to ensure cell growth. Subsequently, the medium was replaced, and the cells were exposed to tested compounds in a wide range of concentrations (0.1–6 µM). Before investigated compounds were diluted in a culture medium, they had been diluted in DMSO in the final concentration of <0.5% v/v, which were not toxic to the cells. The experimental design included blanks (wells without cells) as well as non-treated control cells. Following the 72 h incubation period, a volume of 20 µL of fresh tetrazolium salt solution (5 mg/mL in PBS) was added per well. In the case of adherent cancer cells, after 3 h of incubation (conditions as previously), the solutions were replaced by 100 µL of DMSO to dissolve formazan complexes. In contrast, the solutions in plates containing PBMCs were not removed and a 100 µL mixture of 50% DMF and 20% SDS was added to each well for the next 24 h. Absorbance was measured via spectrophotometer (microplate reader Power Wave XS BioTek Instruments, Inc., Winooski, VT, USA) at 570 nm. […]

[4] = test system: HCT 116; test: MTT assay, HCT 116; format: cell-based; conditions: Homo sapiens; HCT 116, MTT, 72 h; 95% confidence intervals in parentheses
Text: as §1, §2

[5] = test system: PC-3; test: MTT assay, PC-3; format: cell-based; conditions: Homo sapiens; PC-3, MTT, 72 h; 95% confidence intervals in parentheses
Text: as §1, §2

[6] = test system: BxPC-3; test: MTT assay, BxPC-3; format: cell-based; conditions: Homo sapiens; BxPC-3, MTT, 72 h; 95% confidence intervals in parentheses
Text: as §1, §2

[7] = test system: Hs27; test: MTT assay, Hs27 fibroblasts (normal); format: cell-based; conditions: Homo sapiens, 72 h, 95% confidence intervals in parentheses
Text: as §1, §2

[8] = test system: PBMCs; test: MTT assay, PBMCs (normal); format: cell-based; conditions: Homo sapiens, PBMC, PBMCs normal cells, 72 h, 95% confidence intervals in parentheses
Text: Human PBMCs were isolated from the leucocyte buffy coat obtained from the blood of healthy and nonsmoking volunteers (aged 18–65). Leukocyte buffy coats were collected from Blood Bank in Lodz, Poland. The use of the leukocyte buffy coat in the investigation of the effect of novel tricyclic pyrazolo[4,3-e][1,2,4]triazine derivatives on human PBMCs was approved by the Bioethics Committee for Scientific Investigation, University of Lodz (agreement no. 8/KBBN-UŁ/I//2019). Isolation of PBMCs was performed by density gradient of Lymphosep (25 min, 1400 rpm, RT). PBMCs were cultured in RPMI-1640 medium, supplemented with 1% (v/v) penicillin–streptomycin solution, 1.5% PHA and 10% (v/v) FBS.
as §1
(§3) The suspension of 8–10 × 10^3 (adherent cells) and 8 × 10^4 (PBMCs) cells in 200 µL and 100 µL medium, respectively, was transferred to each well of 96-well microplate. Plates were incubated for 24 h in controlled conditions (5% CO2; 37 °C) to ensure cell growth. Subsequently, the medium was replaced, and the cells were exposed to tested compounds in a wide range of concentrations (0.1–6 µM). Before investigated compounds were diluted in a culture medium, they had been diluted in DMSO in the final concentration of <0.5% v/v, which were not toxic to the cells. […] Absorbance was measured via spectrophotometer (microplate reader Power Wave XS BioTek Instruments, Inc., Winooski, VT, USA) at 570 nm. […]

[9] = test system: HCT 116; test: Comet assay, alkaline version (pH > 13), HCT 116; format: cell-based, human; conditions: HCT 116, 24 h; for Alkaline Version, median percentage of DNA in comet tail: compound at 2 × IC50, interquartile range in parentheses
Description: (§4) The alkaline version (pH > 13), as well as the neutral version (pH 9.0) of the comet assay, was performed on cancer cell lines according to the procedures described by Singh et al. with modifications. 12-well plates were seeded at a density of 1.2–1.5 × 10^5 cells per well. […] In addition, negative and positive controls (cells treated only with DMSO at <0.5% and with bleomycin at 20 µM, respectively) were included.
(§5) Following a 24 h incubation (5% CO2; 37 °C), the cells were trypsinized and transferred to Eppendorf tubes and centrifuged (10 min, 1400 rpm, 4 °C). The obtained pellet was resuspended in 100 µL of fresh PBS, mixed with 0.75% LMP agarose dissolved in PBS, and embedded onto microscope slides, previously precoated with 0.5% NMP agarose. The Trypan Blue dye exclusion test was used to determine the number of viable cells present in a cell suspension. […] The slides after agarose solidification were placed in a fresh, cold lysis buffer (pH 10, 1% Triton X-100, 2.5 M NaCl, 100 mM EDTA, 10 mM Tris) for 1 h (4 °C, in dark), which subsequently was replaced by electrophoretic solution (1 mM EDTA, 300 mM NaOH, pH > 13) for another 40 min. Afterward, electrophoresis was performed (25 min, 0.73 V/cm, 300 mA, 4 °C, in dark). Subsequently, the slides were neutralized with 0.4 M Tris, pH 7.5 (20 min, 4 °C, in dark) and washed 3× in distilled water. Eventually, slides were drained, stained with DAPI (1 μg/mL) for at least 1 h (4 °C), and analyzed with fluorescence microscope (Olympus, Tokyo, Japan).
(§6) A total number of 50 randomly selected images were analyzed in the commercially available software CaspLab. Two parallel experiments with aliquots of the same sample of cells were performed for a total of 100 cells. From the available parameters, the percentage of DNA in comet tail was selected as the most appropriate as being negatively associated with the level of DNA cross-links, as well as positively correlated with alkali-labile sites and the amount of DNA single-strand breaks (SSBs) and double-strand breaks (DSBs) (alkaline version of the comet assay). […]

[10] = test system: PC-3; test: Comet assay, alkaline version (pH > 13), PC-3; format: cell-based, human; conditions: PC-3, 24 h, range over 0.5, 1 and 2 × IC50
Description: as §4, §5, §6

[11] = test system: HCT 116; test: Immunocytochemical detection of γ-H2AX; format: cell-based, human; conditions: HCT 116, 24 h, highest concentration used (2 × IC50)
Description: Immunocytochemical detection of the phosphorylated form of the histone protein component H2AX (γ-H2AX) is a well-known approach to estimate DNA DSB levels in both in vitro [47, 53, 66] and in vivo [67, 68] studies. HCT 116 cells were grown on coverslips in 12-well plates at a density of 1.2 × 10^5 per well for 24 h (5% CO2; 37 °C). Subsequently, the cells were exposed to investigated compounds in two different concentrations (IC50 and 2 × IC50 values with respect to MTT results), by replacing the medium with an appropriate compound concentration. Negative control (cells treated only with DMSO at <0.5%) was also included.
The cells were fixed with 4% paraformaldehyde (10 min), washed twice with PBS, and permeabilized with 0.5% (v/v) Triton X-100/PBS solution (10 min). Afterward, the cells were incubated with a blocking solution containing 1.5% goat serum, and 0.1% Triton in PBS for 10 min and incubated with the primary antibody, anti-gamma-H2AX (phospho-Ser139) (Abcam, Cambridge, UK; 1:100) for 1 h. […]
The slides were examined using a fluorescence microscope (Olympus) at 40× magnification. […] A total number of 150 randomly selected cells from digital images per sample were measured. The data were exported and analyzed in GraphPad Prism 8.0 software system (GraphPad Prism Software Inc., San Diego, CA, USA).

[12] = test system: HT-29 and DLD-1; conditions: HT-29 and DLD-1, range; cited from earlier work
[13] = test system: HeLa, HCT 116, PC-3, BxPC-3, Hs27, PBMCs; test: MTT assay, summary over all tested cells; format: cell-based; conditions: Homo sapiens; HCT 116, HeLa, PC-3 and BxPC-3, MTT; read-out: IC50 range in cancer cell lines
Text: as §1, §3

[14] = test system: HT-29 and DLD-1 cancer cells; set-up: method as in PMID 26089833; conditions: mice challenged with HT-29 and DLD-1 cancer cells, two weeks of treatment; cited from earlier work
[15] = test system: tumor development; set-up: method as in PMID 31371419; conditions: zebrafish embryo xenograft model; cited from earlier work
[16] = test system: BxPC-3; set-up: method as in PMID 20021699, PMID 24172061; conditions: cited from earlier work
[17] = test system: HeLa; set-up: method as in doi:10.26650/IstanbulJPharm.2020.0039, PMID 34200051; conditions: cited from earlier work

IC50 [3] [nM]	IC50 [4] [nM]	IC50 [5] [nM]	IC50 [6] [nM]	Structure (SMILES)	IC50 [1] [nM]	IC50 [2] [nM]	IC50 [7] [nM]	IC50 [8] [nM]	% of DNA in comet tail, alkaline comet assay [10]	IC50 [12] [nM]	also measured
				CCc1c2c(nc3ccc(OC(=O)N4CCC(N5CCCCC5)CC4)cc13)-c1cc3c(c(=O)n1C2)COC(=O)[C@]3(O)CC [irinotecan]	2600	2100					
				O=C1[O][Pt]2([NH][C@@H]3CCCC[C@H]3[NH]2)[O]C1=O [oxaliplatin]	72000	100000					
590	440	220	170	Cc1nn(-c2ccc(S(=O)(=O)N[C@@H](C)CO)cc2)c2nn3nnnc3nc12 [MM130]			810	770	7.4–21.8%		Alkaline Version, median percentage of DNA in comet tail [9]: 25.6%; median of the number of γ-H2AX foci per nucleus [11]: 12 foci per nucleus; melting point: 197 to 202 °C
				Cc1nn(-c2ccc(S(=O)(=O)N3CCN(C)CC3)cc2)c2nn3nnnc3nc12 [MM137, reference compound]						160 to 1540	
410	390	170	130	Cc1nn(-c2ccc(S(=O)(=O)N[C@H](C)CO)cc2)c2nn3nnnc3nc12 [MM131]			620	620	19.5–40.3%	3100 to 3900	Alkaline Version, median percentage of DNA in comet tail [9]: 38.8%; % of DNA in comet tail, alkaline comet assay ([9]; range over 0.5, 1 and 2 × IC50): 8–38.8%; median of the number of γ-H2AX foci per nucleus [11]: 15 foci per nucleus; IC50 [13]: 130 to 900 nM
900	600	360	260	COC(=O)C1CC(O)CN1S(=O)(=O)c1ccc(-n2nc(C)c3nc4nnnn4nc32)cc1 (centres unmarked) [MM129]			1150	1110	7.4–21.8%	3100 to 3900	IC50 [13]: 130 to 900 nM; tumor mass and volume [14]: significant reduction in tumor mass and volume; tumor development [15]: inhibition of tumor development
				O=c1[nH]cc(F)c(=O)[nH]1 [5-fluorouracil]	3200						IC50 [16]: 96100 nM
				Cc1nn(-c2ccc(S(=O)(=O)NC(CO)CC(C)C)cc2)c2nn3nnnc3nc12 (centres unmarked) [MM124, reference compound]						160 to 1540	
				N.N.[Cl][Pt][Cl] [cisplatin]	9000	9000					IC50 [17]: 12300 nM
